# Results published in patent US9546156B2, “N-bicyclic aryl,N'-pyrazolyl urea, thiourea, guanidine cyanoguanidine compounds as TrkA kinase inhibitors” (Array BioPharma Inc., priority 2012, dated 2017).
# Columns and labels:
# Assay in all cases: Off-target kinase profiling (KinaseProfiler)
# Assay type in all cases: biochemical
# Details in all cases: 10 μM, ATP near Km
# ALK = molecular target: T1, ALK (Homo sapiens, UniProt Q9UM73)
# T1 construct: purchased Millipore, Inc. (KinaseProfiler service)
# Procedure: (§1) A representative compound (Example 16) of the invention was tested for off-target kinase activity at a concentration of 10 μM by Millipore, Inc. in their KinaseProfiler™ service against all the kinases available in their full kinase panel. The compound was run in duplicate at a concentration of ATP near the Km for each individual kinase according to Millipore's specifications. The results are shown in Table B. Data are reported as percent of control (POC) and are the average of the two replicates.
# Axl = molecular target: T2, Axl (Homo sapiens, UniProt P30530)
# T2 construct: purchased Millipore, Inc. (KinaseProfiler service)
# Procedure: as §1
# CDK6/cyclinD3 = molecular target: T3, CDK6/cyclinD3 (Homo sapiens, UniProt Q00534)
# T3 construct: purchased Millipore, Inc. (KinaseProfiler service)
# Procedure: as §1
# CK1gamma2 = molecular target: T4, CK1gamma2 (Homo sapiens, UniProt P78368)
# T4 construct: purchased Millipore, Inc. (KinaseProfiler service)
# Procedure: as §1
# CK2 = molecular target: T5, CK2 (Homo sapiens, UniProt P68400)
# T5 construct: purchased Millipore, Inc. (KinaseProfiler service)
# Procedure: as §1
# DAPK3 = molecular target: T6, DAPK3 (Homo sapiens, UniProt O43293)
# T6 construct: purchased Millipore, Inc. (KinaseProfiler service)
# Procedure: as §1
# DMPK = molecular target: T7, DMPK (Homo sapiens, UniProt Q09013)
# T7 construct: purchased Millipore, Inc. (KinaseProfiler service)
# Procedure: as §1
# ERK1 = molecular target: T8, ERK1 (Homo sapiens, UniProt P27361)
# T8 construct: purchased Millipore, Inc. (KinaseProfiler service)
# Procedure: as §1
# EphA3 = molecular target: T9, EphA3 (Homo sapiens, UniProt P29320)
# T9 construct: purchased Millipore, Inc. (KinaseProfiler service)
# Procedure: as §1
# EphA5 = molecular target: T10, EphA5 (Homo sapiens, UniProt P54756)
# T10 construct: purchased Millipore, Inc. (KinaseProfiler service)
# T10 sequence (P54756 25-1037): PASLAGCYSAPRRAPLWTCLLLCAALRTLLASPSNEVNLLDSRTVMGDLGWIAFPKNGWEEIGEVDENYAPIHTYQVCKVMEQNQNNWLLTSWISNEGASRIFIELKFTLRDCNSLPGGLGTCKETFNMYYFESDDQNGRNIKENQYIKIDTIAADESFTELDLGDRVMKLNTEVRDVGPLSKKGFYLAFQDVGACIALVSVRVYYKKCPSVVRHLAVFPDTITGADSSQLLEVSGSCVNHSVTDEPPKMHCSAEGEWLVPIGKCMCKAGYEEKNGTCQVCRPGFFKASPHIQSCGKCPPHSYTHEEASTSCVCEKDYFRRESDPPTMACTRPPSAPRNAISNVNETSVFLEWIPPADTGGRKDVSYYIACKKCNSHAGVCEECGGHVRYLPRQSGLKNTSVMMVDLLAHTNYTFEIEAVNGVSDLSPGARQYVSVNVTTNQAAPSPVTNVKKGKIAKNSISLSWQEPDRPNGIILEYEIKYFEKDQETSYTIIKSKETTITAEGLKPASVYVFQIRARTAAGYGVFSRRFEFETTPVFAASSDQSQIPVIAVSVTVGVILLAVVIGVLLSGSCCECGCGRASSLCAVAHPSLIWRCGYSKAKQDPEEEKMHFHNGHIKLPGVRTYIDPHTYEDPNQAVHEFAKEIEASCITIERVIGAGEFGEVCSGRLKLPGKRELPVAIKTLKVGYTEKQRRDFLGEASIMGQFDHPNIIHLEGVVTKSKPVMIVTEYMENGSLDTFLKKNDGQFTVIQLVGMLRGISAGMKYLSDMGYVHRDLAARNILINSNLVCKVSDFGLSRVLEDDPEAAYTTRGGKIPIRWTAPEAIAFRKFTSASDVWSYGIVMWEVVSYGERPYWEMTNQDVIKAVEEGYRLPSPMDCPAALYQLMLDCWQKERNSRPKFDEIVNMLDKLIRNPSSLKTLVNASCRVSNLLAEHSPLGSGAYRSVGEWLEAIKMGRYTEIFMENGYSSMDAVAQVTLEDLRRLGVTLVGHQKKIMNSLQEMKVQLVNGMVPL
# Procedure: as §1
# ErbB4 = molecular target: T11, ErbB4 (Homo sapiens, UniProt Q15303)
# T11 construct: purchased Millipore, Inc. (KinaseProfiler service)
# Procedure: as §1
# Flt3 = molecular target: T12, Flt3 (Homo sapiens, UniProt P36888)
# T12 construct: purchased Millipore, Inc. (KinaseProfiler service)
# T12 sequence (P36888 27-993): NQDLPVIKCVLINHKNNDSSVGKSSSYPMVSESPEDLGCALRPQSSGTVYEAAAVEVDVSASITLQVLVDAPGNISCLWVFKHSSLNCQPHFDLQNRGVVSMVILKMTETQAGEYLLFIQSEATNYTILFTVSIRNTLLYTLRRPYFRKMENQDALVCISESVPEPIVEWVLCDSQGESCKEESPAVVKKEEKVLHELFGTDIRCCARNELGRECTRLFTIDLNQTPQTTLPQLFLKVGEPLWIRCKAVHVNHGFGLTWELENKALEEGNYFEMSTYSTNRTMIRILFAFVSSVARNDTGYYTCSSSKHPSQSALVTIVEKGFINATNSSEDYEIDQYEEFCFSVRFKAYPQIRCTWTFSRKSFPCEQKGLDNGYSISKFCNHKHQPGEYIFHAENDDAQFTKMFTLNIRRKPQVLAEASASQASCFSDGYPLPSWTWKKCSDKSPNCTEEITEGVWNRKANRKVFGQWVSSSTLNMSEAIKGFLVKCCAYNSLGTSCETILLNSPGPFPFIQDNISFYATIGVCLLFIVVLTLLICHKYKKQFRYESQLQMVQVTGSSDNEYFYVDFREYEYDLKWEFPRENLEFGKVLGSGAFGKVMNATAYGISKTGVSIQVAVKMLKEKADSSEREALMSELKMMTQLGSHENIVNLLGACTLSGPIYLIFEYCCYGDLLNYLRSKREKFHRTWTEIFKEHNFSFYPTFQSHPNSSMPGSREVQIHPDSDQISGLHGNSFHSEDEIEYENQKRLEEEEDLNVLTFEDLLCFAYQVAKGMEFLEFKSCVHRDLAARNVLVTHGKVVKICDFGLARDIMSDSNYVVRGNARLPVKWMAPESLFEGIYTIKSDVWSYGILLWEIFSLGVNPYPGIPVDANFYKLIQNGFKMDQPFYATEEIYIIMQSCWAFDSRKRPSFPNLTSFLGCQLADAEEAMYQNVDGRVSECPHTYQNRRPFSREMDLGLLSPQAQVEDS
# Procedure: as §1
# GRK5 = molecular target: T13, GRK5 (Homo sapiens, UniProt P34947)
# T13 construct: purchased Millipore, Inc. (KinaseProfiler service)
# Procedure: as §1
# GSK3alpha = molecular target: T14, GSK3alpha (Homo sapiens, UniProt P49840)
# T14 construct: purchased Millipore, Inc. (KinaseProfiler service)
# T14 sequence (P49840 whole entry): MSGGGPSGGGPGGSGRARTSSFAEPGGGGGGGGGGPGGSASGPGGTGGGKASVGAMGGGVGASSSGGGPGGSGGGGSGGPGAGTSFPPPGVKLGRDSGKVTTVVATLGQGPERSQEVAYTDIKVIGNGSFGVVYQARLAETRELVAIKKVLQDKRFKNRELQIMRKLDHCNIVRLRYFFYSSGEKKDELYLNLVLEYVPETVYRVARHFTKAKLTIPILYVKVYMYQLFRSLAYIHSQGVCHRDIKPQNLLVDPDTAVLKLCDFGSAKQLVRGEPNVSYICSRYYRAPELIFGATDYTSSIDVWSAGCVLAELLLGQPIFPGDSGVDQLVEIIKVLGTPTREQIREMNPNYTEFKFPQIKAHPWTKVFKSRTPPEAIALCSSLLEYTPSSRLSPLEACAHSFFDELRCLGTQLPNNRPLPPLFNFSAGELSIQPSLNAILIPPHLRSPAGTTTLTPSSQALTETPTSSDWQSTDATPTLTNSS
# Procedure: as §1
# GSK3beta = molecular target: T15, GSK3beta (Homo sapiens, UniProt P49841)
# T15 construct: purchased Millipore, Inc. (KinaseProfiler service)
# Procedure: as §1
# IRR = molecular target: T16, IRR (Homo sapiens, UniProt P14616)
# T16 construct: purchased Millipore, Inc. (KinaseProfiler service)
# Procedure: as §1
# JAK3 = molecular target: T17, JAK3 (Homo sapiens, UniProt P52333)
# T17 construct: purchased Millipore, Inc. (KinaseProfiler service)
# T17 sequence (P52333 whole entry): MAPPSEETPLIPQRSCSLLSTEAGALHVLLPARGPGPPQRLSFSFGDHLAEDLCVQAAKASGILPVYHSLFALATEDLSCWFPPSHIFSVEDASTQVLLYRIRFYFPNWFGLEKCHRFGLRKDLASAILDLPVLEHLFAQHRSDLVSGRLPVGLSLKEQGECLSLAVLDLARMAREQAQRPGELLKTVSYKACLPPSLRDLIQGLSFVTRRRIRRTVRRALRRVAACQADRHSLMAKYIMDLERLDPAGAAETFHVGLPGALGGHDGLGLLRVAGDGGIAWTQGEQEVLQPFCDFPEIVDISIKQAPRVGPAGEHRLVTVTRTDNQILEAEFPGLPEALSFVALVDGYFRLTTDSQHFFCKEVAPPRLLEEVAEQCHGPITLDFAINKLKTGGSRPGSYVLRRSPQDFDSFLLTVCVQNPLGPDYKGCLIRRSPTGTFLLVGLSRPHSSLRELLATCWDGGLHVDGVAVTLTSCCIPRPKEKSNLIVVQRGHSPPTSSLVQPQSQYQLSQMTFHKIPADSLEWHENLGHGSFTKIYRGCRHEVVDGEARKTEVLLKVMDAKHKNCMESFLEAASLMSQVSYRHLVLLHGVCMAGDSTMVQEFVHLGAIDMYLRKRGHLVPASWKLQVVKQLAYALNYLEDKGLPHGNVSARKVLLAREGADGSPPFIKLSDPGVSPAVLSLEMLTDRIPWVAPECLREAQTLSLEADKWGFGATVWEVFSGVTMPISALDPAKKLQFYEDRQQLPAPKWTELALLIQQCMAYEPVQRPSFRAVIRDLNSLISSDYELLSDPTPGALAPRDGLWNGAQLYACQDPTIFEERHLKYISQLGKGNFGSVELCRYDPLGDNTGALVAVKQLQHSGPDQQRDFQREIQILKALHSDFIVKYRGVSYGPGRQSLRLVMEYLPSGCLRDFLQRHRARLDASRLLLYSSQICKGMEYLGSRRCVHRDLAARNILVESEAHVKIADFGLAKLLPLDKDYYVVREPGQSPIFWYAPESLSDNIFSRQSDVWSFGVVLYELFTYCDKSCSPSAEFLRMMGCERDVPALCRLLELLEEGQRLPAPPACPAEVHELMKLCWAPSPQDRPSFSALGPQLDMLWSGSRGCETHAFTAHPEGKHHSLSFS
# Procedure: as §1
# JNK2alpha2 = molecular target: T18, JNK2alpha2 (Homo sapiens, UniProt P45984)
# T18 construct: purchased Millipore, Inc. (KinaseProfiler service)
# Procedure: as §1
# Lck = molecular target: T19, Lck (Homo sapiens, UniProt P06239)
# T19 construct: purchased Millipore, Inc. (KinaseProfiler service)
# Procedure: as §1
# MAP4K2 = molecular target: T20, MAP4K2 (Homo sapiens, UniProt Q12851)
# T20 construct: purchased Millipore, Inc. (KinaseProfiler service)
# Procedure: as §1
# MAPKAP-K5 = molecular target: T21, MAPKAP-K5 (Homo sapiens, UniProt Q8IW41)
# T21 construct: purchased Millipore, Inc. (KinaseProfiler service)
# Procedure: as §1
# MELK = molecular target: T22, MELK (Homo sapiens, UniProt Q14680)
# T22 construct: purchased Millipore, Inc. (KinaseProfiler service)
# Procedure: as §1
# NEK11 = molecular target: T23, NEK11 (Homo sapiens, UniProt Q8NG66)
# T23 construct: purchased Millipore, Inc. (KinaseProfiler service)
# Procedure: as §1
# NEK2 = molecular target: T24, NEK2 (Homo sapiens, UniProt P51955)
# T24 construct: purchased Millipore, Inc. (KinaseProfiler service)
# Procedure: as §1
# NEK7 = molecular target: T25, NEK7 (Homo sapiens, UniProt Q8TDX7)
# T25 construct: purchased Millipore, Inc. (KinaseProfiler service)
# Procedure: as §1
# PASK = molecular target: T26, PASK (Homo sapiens, UniProt Q96RG2)
# T26 construct: purchased Millipore, Inc. (KinaseProfiler service)
# Procedure: as §1
# PKCalpha = molecular target: T27, PKCalpha (Homo sapiens, UniProt P17252)
# T27 construct: purchased Millipore, Inc. (KinaseProfiler service)
# Procedure: as §1
# PKCbetaII = molecular target: T28, PKCbetaII (Homo sapiens, UniProt P05771)
# T28 construct: purchased Millipore, Inc. (KinaseProfiler service)
# Procedure: as §1
# PKCgamma = molecular target: T29, PKCgamma (Homo sapiens, UniProt P05129)
# T29 construct: purchased Millipore, Inc. (KinaseProfiler service)
# Procedure: as §1
# PKCiota = molecular target: T30, PKCiota (Homo sapiens, UniProt P41743)
# T30 construct: purchased Millipore, Inc. (KinaseProfiler service)
# Procedure: as §1
# PRK2 = molecular target: T31, PRK2 (Homo sapiens, UniProt Q16513)
# T31 construct: purchased Millipore, Inc. (KinaseProfiler service)
# Procedure: as §1
# PRKG1beta = molecular target: T32, PRKG1beta (Homo sapiens, UniProt Q13976)
# T32 construct: purchased Millipore, Inc. (KinaseProfiler service)
# Procedure: as §1
# PhKgamma2 = molecular target: T33, PhKgamma2 (Homo sapiens, UniProt P15735)
# T33 construct: purchased Millipore, Inc. (KinaseProfiler service)
# Procedure: as §1
# Rsk1 = molecular target: T34, Rsk1 (Homo sapiens, UniProt Q15418)
# T34 construct: purchased Millipore, Inc. (KinaseProfiler service)
# T34 sequence (Q15418 whole entry): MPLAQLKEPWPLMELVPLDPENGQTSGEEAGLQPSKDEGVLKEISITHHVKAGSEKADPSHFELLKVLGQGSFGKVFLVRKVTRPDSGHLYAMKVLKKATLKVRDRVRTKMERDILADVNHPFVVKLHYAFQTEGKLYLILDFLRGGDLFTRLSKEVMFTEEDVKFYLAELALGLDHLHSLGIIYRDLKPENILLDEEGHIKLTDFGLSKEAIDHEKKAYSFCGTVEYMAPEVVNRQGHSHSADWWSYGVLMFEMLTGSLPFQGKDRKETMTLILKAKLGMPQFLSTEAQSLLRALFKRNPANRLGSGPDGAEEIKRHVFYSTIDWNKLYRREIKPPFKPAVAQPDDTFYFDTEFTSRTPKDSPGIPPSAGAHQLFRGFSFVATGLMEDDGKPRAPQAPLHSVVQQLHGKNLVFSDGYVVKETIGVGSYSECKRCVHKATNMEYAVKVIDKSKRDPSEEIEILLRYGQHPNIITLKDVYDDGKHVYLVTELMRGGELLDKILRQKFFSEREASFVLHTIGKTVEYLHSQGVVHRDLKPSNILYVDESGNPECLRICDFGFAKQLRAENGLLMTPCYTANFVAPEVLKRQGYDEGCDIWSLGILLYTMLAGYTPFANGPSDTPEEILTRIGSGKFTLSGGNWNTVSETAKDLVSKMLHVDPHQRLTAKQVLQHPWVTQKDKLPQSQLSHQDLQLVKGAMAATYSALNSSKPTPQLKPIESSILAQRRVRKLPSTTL
# Procedure: as §1
# TrkA = molecular target: T35, TrkA (Homo sapiens, UniProt P04629)
# T35 construct: purchased Millipore, Inc. (KinaseProfiler service)
# Procedure: as §1
# Yes = molecular target: T36, Yes (Homo sapiens, UniProt P07947)
# T36 construct: purchased Millipore, Inc. (KinaseProfiler service)
# Procedure: as §1
# ZAP-70 = molecular target: T37, ZAP-70 (Homo sapiens, UniProt P43403)
# T37 construct: purchased Millipore, Inc. (KinaseProfiler service)
# Procedure: as §1
# p38alpha = molecular target: T38, p38alpha (Homo sapiens, UniProt Q16539)
# T38 construct: purchased Millipore, Inc. (KinaseProfiler service)
# Procedure: as §1
# p38delta = molecular target: T39, p38delta (Homo sapiens, UniProt O15264)
# T39 construct: purchased Millipore, Inc. (KinaseProfiler service)
# Procedure: as §1
# p38gamma = molecular target: T40, p38gamma (Homo sapiens, UniProt P53778)
# T40 construct: purchased Millipore, Inc. (KinaseProfiler service)
# Procedure: as §1
# p70S6K = molecular target: T41, p70S6K (Homo sapiens, UniProt P23443)
# T41 construct: purchased Millipore, Inc. (KinaseProfiler service)
# Procedure: as §1
structure (smiles),measurement,setting,value
"COCc1ccc2cccc(NC(=O)Nc3c(C)c(-c4cnn(C)c4)nn3-c3ccccc3)c2c1 [Example 16, 1-(1′,4-dimethyl-1-phenyl-1H,1′H-[3,4′-bipyrazol]-5-yl)-3-(7-(methoxymethyl)naphthalen-1-yl)urea]",Avg POC,ALK,114.5 POC
same,Avg POC,Axl,103.5 POC
same,Avg POC,CDK6/cyclinD3,121 POC
same,Avg POC,CK1gamma2,124.5 POC
same,Avg POC,CK2,114.5 POC
same,Avg POC,DAPK3,120 POC
same,Avg POC,DMPK,110.5 POC
same,Avg POC,ERK1,110 POC
same,Avg POC,EphA3,139.5 POC
same,Avg POC,EphA5,118.5 POC
same,Avg POC,ErbB4,118 POC
same,Avg POC,Flt3,121.5 POC
same,Avg POC,GRK5,108 POC
same,Avg POC,GSK3alpha,125 POC
same,Avg POC,GSK3beta,212 POC
same,Avg POC,IRR,102.5 POC
same,Avg POC,JAK3,131.5 POC
same,Avg POC,JNK2alpha2,126.5 POC
same,Avg POC,Lck,103 POC
same,Avg POC,MAP4K2,110.5 POC
same,Avg POC,MAPKAP-K5,122.5 POC
same,Avg POC,MELK,135.5 POC
same,Avg POC,NEK11,116 POC
same,Avg POC,NEK2,105.5 POC
same,Avg POC,NEK7,123 POC
same,Avg POC,PASK,164.5 POC
same,Avg POC,PKCalpha,97 POC
same,Avg POC,PKCbetaII,106.5 POC
same,Avg POC,PKCgamma,100.5 POC
same,Avg POC,PKCiota,109 POC
same,Avg POC,PRK2,142.5 POC
same,Avg POC,PRKG1beta,119 POC
same,Avg POC,PhKgamma2,118 POC
same,Avg POC,Rsk1,226.5 POC
same,Avg POC,TrkA,2 POC
same,Avg POC,Yes,107.5 POC
same,Avg POC,ZAP-70,118 POC
same,Avg POC,p38alpha,117 POC
same,Avg POC,p38delta,121 POC
same,Avg POC,p38gamma,116 POC
same,Avg POC,p70S6K,218 POC
